# Tested on: T1, SCNL (lipase from Staphylococcus caprae NCU S6)
# T1 construct: native extracellular enzyme purified from culture supernatant of the source strain (ammonium sulphate, ultrafiltration, Sephadex G-50, DEAE-Sepharose); ~87 kDa by SDS-PAGE
# Assay: colorimetric p-nitrophenol release at […] nm, Lineweaver-Burk
# Type: biochemical
# Settings: 0.1-5.0 mM p-NPP, optimum conditions (optimal pH 9.0 and 40 °C); free enzyme
smiles,measurement,value
CCCCCCCCCCCCCCCC(=O)Oc1ccc([N+](=O)[O-])cc1 [p-nitrophenyl palmitate],Km,695 µM

# Reference: article PMC7751408, “Production, purification and biochemical characterisation of a novel lipase from a newly identified lipolytic bacterium Staphylococcus caprae NCU S6” (Journal of Enzyme Inhibition and Medicinal Chemistry, 2020)
